Laboratory results: ChEMBL document CHEMBL1122122, “Drug latentiation by gamma-glutamyl transpeptidase” (J Med Chem, 1982)
Residues, ends and D or L forms follow the SMILES beside them.

test: Compound evaluated for drug latentiation activity by determining relative rate of cleavage by gamma-glutamyl transpeptidase; type: functional

Relative activity	SMILES
100	CSC[C@H](NC(=O)CC[C@H](N)C(=O)O)C(=O)NCC(=O)O
4	NC(CCC(=O)N1CCCC1C(=O)O)C(=O)O (stereo not given)
9	NC(CCC(=O)NCCCC(=O)O)C(=O)O (stereo not given)
98	NC(CCC(=O)Nc1ccc(O)cc1)C(=O)O (stereo not given)
5	NC(CCC(=O)N1CSCC1C(=O)O)C(=O)O (stereo not given)
95	NC(CCC(=O)Nc1ccccc1O)C(=O)O (stereo not given)
96	NC(CCC(=O)Nc1cccc(O)c1)C(=O)O (stereo not given)
19	NC(CCC(=O)NC1(C(=O)O)CCCC1)C(=O)O (stereo not given)
70	NC(=O)CC[C@H](N)C(=O)NCC(=O)O (H-Gln-Gly-OH)
95	CCC(NC(=O)CCC(N)C(=O)O)C(=O)O (stereo not given)
